17 compounds from PMC10650955, “α-Aminophosphonate inhibitors of metallo-β-lactamases NDM-1 and VIM-2” (RSC Medicinal Chemistry, 2023) can be followed below.

For one test, the target named is T1, VIM-2 (Escherichia coli, UniProt Q5U7L7).
T1 construct: made in house
As to the kind of experiment: Dose rate inhibition studies for IC50 determination, VIM-2 enzymatic assay. It is filed as biochemical. The settings on record: inhibitor 0-800 μM, 3 parallel measurements, N.I. = no enzyme inhibitory activity observed; for IC50: Enzyme IC50 VIM-2, 0.1 nM VIM-2, 100 μM ZnCl2, nitrocefin substrate; for Enzyme IC50 VIM-2: 0.1 nM VIM-2, 100 μM ZnCl2, nitrocefin substrate. How it is done:
(§1) The […] synthesized compounds 5a–l were tested for their inhibitory activities against NDM-1, VIM-2 (Table 1), and GIM-1 in an in vitro enzymatic assay (ESI ^†).[41] The inhibitory activity was measured using enzyme concentrations of 0.1 nM VIM-2, 10 nM NDM-1 or 1 nM GIM-1, with an excess Zn(II) (100 μM, see Experimental methods), with inhibitor compounds with concentrations from 0 to 800 μM. Each data point was measured in triplicates. […] This is in line with previous reports.[42,43]
(§2) A 100 μl solution with buffer (50 mM HEPES (pH 7.2), 100 μM ZnCl2, 2.5% DMSO), purified enzyme (0.1 nM VIM-2, 10 nM NDM-1 or 1 nM GIM-1) and 800–0 μM inhibitor was incubated in a 96 well plate at 25 °C for 5 min. In addition, the enzyme buffer contained 400 μg ml^−1 bovine serum albumin (BSA) to prevent protein unfolding and loss of activity due to low concentrations.[67,68] 100 μM of the reporter substrate nitrocefin (VIM-2, GIM-1) or imipenem (NDM-1) was added to the enzyme–inhibitor solution and the increase in absorbance at 482 nm (nitrocefin) or 300 nm (imipenem) was recorded on a Spectramax M4 spectrophotometer (Molecular Devices). Each data point was performed in triplicates and the initial velocity for each inhibitor concentration was analyzed by a log [inhibitor] vs. response curve fitting to calculate IC50 in GraphPad Prism 9.2 software.

The target in a further test is T2, NDM-1 (Klebsiella pneumoniae, UniProt C7C422).
T2 construct: made in house
Put plainly: Dose rate inhibition studies for IC50 determination, NDM-1 enzymatic assay. It is filed as biochemical. The settings on record: inhibitor 0-800 μM, 3 parallel measurements, N.I. = no enzyme inhibitory activity observed; for Enzyme IC50 NDM-1: 10 nM NDM-1, 100 μM ZnCl2, imipenem substrate; for IC50: Enzyme IC50 NDM-1, 10 nM NDM-1, 100 μM ZnCl2, imipenem substrate. How it is done: as §1, §2

Where a name gives a salt, the structure may show the parent alone.

T2 sequence (C7C422 29-270 limits assumed): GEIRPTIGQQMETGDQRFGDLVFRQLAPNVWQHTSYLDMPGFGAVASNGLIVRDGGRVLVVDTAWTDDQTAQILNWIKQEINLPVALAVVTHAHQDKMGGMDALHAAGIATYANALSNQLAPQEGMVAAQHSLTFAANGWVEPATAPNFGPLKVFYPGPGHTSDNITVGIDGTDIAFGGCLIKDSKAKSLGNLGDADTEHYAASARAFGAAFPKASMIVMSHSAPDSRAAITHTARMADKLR

As to `O=C(NC(C1CCCCN1)P(=O)(O)O)c1csc2c1CCCC2` (single isomer, unassigned) [Compound 5e-1, (Piperidin-2-yl(4,5,6,7-tetrahydrobenzo[b]thiophene-3-carboxamido)methyl)phosphonic acid hydrochloride], at VIM-2, the IC50 stood at 69.7 ± 26.2 µM.

Turning to `Cl.O=C(NC(C1CCCCN1)P(=O)(O)O)c1csc2c1CCCC2` (single isomer, unassigned) [Compound 5e-2, (Piperidin-2-yl(4,5,6,7-tetrahydrobenzo[b]thiophene-3-carboxamido)methyl)phosphonic acid hydrochloride], at VIM-2, 46.1 ± 15.6 µM corresponded to half-maximal inhibition (IC50). Also, on NDM-1, the “Enzyme IC50 NDM-1” value is on record as “N.I”.

Take `Cl.O=C(NC(C1CCCCN1)P(=O)(O)O)c1scc2c1CCCC2` (single isomer, unassigned) [Compound 5f-1, (Piperidin-2-yl(4,5,6,7-tetrahydrobenzo[c]thiophene-1-carboxamido)methyl)phosphonic acid hydrochloride]: the IC50 at VIM-2 stood at 37 ± 3 µM. Also, the “Enzyme IC50 NDM-1” value on NDM-1 is “N.I”.

As to `Cl.O=C(NC(C1CCCCN1)P(=O)(O)O)c1scc2c1CCCC2` (single isomer, unassigned) [Compound 5f-2, (Piperidin-2-yl(4,5,6,7-tetrahydrobenzo[c]thiophene-1-carboxamido)methyl)phosphonic acid hydrochloride], 18.8 ± 0.5 µM corresponded to half-maximal inhibition against VIM-2 (IC50). The “Enzyme IC50 NDM-1” value on NDM-1 is “N.I”.

The compound `Cl.O=C(Cc1cc2ccccc2s1)NC(C1CCCCN1)P(=O)(O)O` (single isomer, unassigned) [Compound 5k-1, ((2-(Benzo[b]thiophen-2-yl)acetamido)(piperidin-2-yl)methyl)phosphonic acid hydrochloride] returned an IC50 against VIM-2 of 56.6 ± 1 µM. Further, at NDM-1, the “Enzyme IC50 NDM-1” value was “N.I”.

In the case of `O=C(Cc1cc2ccccc2s1)NC(C1CCCCN1)P(=O)(O)O` (single isomer, unassigned) [Compound 5k-2, ((2-(Benzo[b]thiophen-2-yl)acetamido)(piperidin-2-yl)methyl)phosphonic acid hydrochloride], at VIM-2, 28.7 ± 10.1 µM corresponded to half-maximal inhibition (IC50).

On to `Cc1[nH]c(=S)sc1CC(=O)NC(C1CCCCN1)P(=O)(O)O` (centres unmarked) [Compound 5a-2, ((2-(4-Methyl-2-thioxo-2,3-dihydrothiazol-5-yl)acet-amido)(piperidin-2-yl)methyl)phosphonic acid hydro-chloride], for which the “Enzyme IC50 VIM-2” value on VIM-2 was “N.I”. The “Enzyme IC50 NDM-1” value at NDM-1 is reported as “N.I”.

On VIM-2, `O=C(NC(C1CCCCN1)P(=O)(O)O)c1ccsc1` (centres unmarked) [Compound 5c-2, (Piperidin-2-yl(thiophene-3-carboxamido)methyl)phos-phonic acid hydrochloride] registered an IC50 of 14.6 ± 2.3 µM. In addition, on NDM-1, the “Enzyme IC50 NDM-1” value was “N.I”.

Regarding `Cl.O=C(NC(C1CCCCN1)P(=O)(O)O)c1cc2c(s1)CCCC2` (centres unmarked) [Compound 5d-1, (Piperidin-2-yl(4,5,6,7-tetrahydrobenzo[b]thiophene-2-carboxamido)methyl)phosphonic acid hydrochloride], 244 ± 35 µM corresponded to half-maximal inhibition on VIM-2 (IC50). For the same compound, the “Enzyme IC50 NDM-1” value on NDM-1 is recorded as “N.I”.

At VIM-2, `Cl.O=C(NC(C1CCCCN1)P(=O)(O)O)c1cc2c(s1)CCCC2` (centres unmarked) [Compound 5d-2, (Piperidin-2-yl(4,5,6,7-tetrahydrobenzo[b]thiophene-2-carboxamido)methyl)phosphonic acid hydrochloride] had an IC50 of 4.5 ± 0.8 µM. In addition, the “Enzyme IC50 NDM-1” value at NDM-1 is “N.I”.

In the case of `O=C(NC(C1CCCCN1)P(=O)(O)O)c1cc2ccccc2s1` (centres unmarked) [Compound 5g-1, ((Benzo[b]thiophene-2-carboxamido)(piperidin-2-yl)methyl)phosphonic acid hydrochloride], the 50% inhibitory concentration (IC50) on VIM-2 came out at 45 ± 5 µM; against NDM-1, 46.7 ± 9.7 µM.

Take `O=C(NC(C1CCCCN1)P(=O)(O)O)c1cc2ccccc2s1` (centres unmarked) [Compound 5g-2, ((Benzo[b]thiophene-2-carboxamido)(piperidin-2-yl)methyl)phosphonic acid hydrochloride]: the IC50 at VIM-2 turned out to be 4.1 ± 2.1 µM; against NDM-1, 46.8 ± 5.5 µM.

In the case of `O=C(NC(C1CCCCN1)P(=O)(O)O)c1csc2ccccc12` (centres unmarked) [Compound 5h-1, ((Benzo[b]thiophene-3-carboxamido)(piperidin-2-yl)met-hyl)phosphonic acid hydrochloride], the 50% inhibitory concentration (IC50) on VIM-2 was 40.6 ± 3.9 µM. Besides, the “Enzyme IC50 NDM-1” value at NDM-1 was “N.I”.

For `O=C(NC(C1CCCCN1)P(=O)(O)O)c1csc2ccccc12` (centres unmarked) [Compound 5h-2, ((Benzo[b]thiophene-3-carboxamido)(piperidin-2-yl)met-hyl)phosphonic acid hydrochloride], the IC50 at VIM-2 came to 11.6 ± 4.7 µM. The “Enzyme IC50 NDM-1” value at NDM-1 is listed as “N.I”.

`O=C(Cc1ccsc1)NC(C1CCCCN1)P(=O)(O)O` (centres unmarked) [Compound 5j-2, (Piperidin-2-yl(2-(thiophen-3-yl)acetamido)methyl)phos-phonic acid hydrochloride]: the “Enzyme IC50 VIM-2” value on VIM-2 is “N.I”. Moreover, on NDM-1, the “Enzyme IC50 NDM-1” value is “N.I”.

In the case of `Cl.O=C(Cc1csc2ccccc12)NC(C1CCCCN1)P(=O)(O)O` (centres unmarked) [Compound 5l-1, ((2-(Benzo[b]thiophen-3-yl)acetamido)(piperidin-2-yl)methyl)phosphonic acid hydrochloride], the “Enzyme IC50 VIM-2” value at VIM-2 is reported as “N.I”. At NDM-1, this compound returned an IC50 of 7.9 ± 1.6 µM.

As for `O=C(Cc1csc2ccccc12)NC(C1CCCCN1)P(=O)(O)O` (centres unmarked) [Compound 5l-2, ((2-(Benzo[b]thiophen-3-yl)acetamido)(piperidin-2-yl)methyl)phosphonic acid hydrochloride], the half-maximal inhibitory concentration (IC50) against VIM-2 came to 94.4 ± 5.8 µM; against NDM-1, 27.8 ± 21 µM.

By IC50 is commonly meant the point on the concentration scale where inhibition reaches its midpoint. A lower IC50 goes with inhibition by little substance.
